Results from patent US9631001B2, “Peptide antagonists of the vasopressin-2 receptor” (COMMISSARIAT A L'ENERGIE ATOMIQUE ET AUX ENERGIES …, priority 2012, dated 2017).

Tests used:
Type in all cases: cell-based
157 GPCRs = test: FLIPR agonist/antagonist profiling on 157 GPCRs; details: 1 μM U-Da2a
Protocol: Percentage activation and percentage inhibition values were determined on each GPCR. […] Percentage inhibition values were determined upon addition of a reference agonist at an estimated EC80 concentration. All wells were prepared using EMD Millipore's GPCRProfiler® Assay Buffer. The GPCRProfiler® Assay Buffer was a modified Hanks Balanced Salt Solution (HBSS) where HBSS was supplemented to contain 20 mM HEPES and 2.5 mM Probenecid at pH7.4. […] The agonist assay was a total of 180 seconds and was used to assess each compound's ability to activate each GPCR assayed. […] The antagonist assay was conducted using the same assay plate and the same apparatus that was used for the agonist assay. All assay plate data were subjected to appropriate baseline corrections. After baseline corrections were applied, maximum fluorescence values were exported and data processed to calculate percentage activation (relative to Emax reference agonist and vehicle control values), percentage inhibition (relative to EC80 and vehicle control values), and additional statistical values (i.e. Z′, percentage variation between replicate data values) to assess the quality of each plate. Where assay plate data were rejected, additional experiments were conducted.

Cav1.2 = biological target: T1, Cav1.2 (Homo sapiens, UniProt Q13936); test: IonWorks electrophysiological assay; details: 1 μM
T1 construct: expressed in transfected cells
Protocol: (§1) The stock solution was transferred to a master plate and into assay plates where 2 μl per well of the solution were placed. On the day of the assay, 198 μl of external solution containing the appropriate DMSO concentration was added and mixed thoroughly. This provided a 1:100 dilution. A further 1:3 dilution occurred upon addition to the cells in the IonWorks, giving a 1:300 dilution in total. On each assay plate, at least 8 wells were reserved for vehicle control (0.3% DMSO) and at least 8 wells for each positive control specific to the cell line tested. The positive controls were tested at a maximal blocking and an approximate IC50 concentration. The compounds used for positive controls: Nav1.5 100 μM and 5 mM Lidocaine, Kv4.3/KChIP2 20 μM and 500 μM Quinidine, Cav1.2 1 μM and 100 μM Nitrendipine, Kv1.5 300 μM and 10 mM 4-AP, KCNQ1/minK 10 μM and 100 μM Chromanol 293B, hERG 0.1 μM and 1 μM Cisapride, HCN4 50 μM and 3 mM Cesium, Kir2.1 20 μM and 500 μM Barium.

HCN4 = biological target: T2, HCN4 (Homo sapiens, UniProt Q9Y3Q4); test: IonWorks electrophysiological assay; details: 1 μM
T2 construct: expressed in transfected cells
T2 sequence (Q9Y3Q4 1-1203): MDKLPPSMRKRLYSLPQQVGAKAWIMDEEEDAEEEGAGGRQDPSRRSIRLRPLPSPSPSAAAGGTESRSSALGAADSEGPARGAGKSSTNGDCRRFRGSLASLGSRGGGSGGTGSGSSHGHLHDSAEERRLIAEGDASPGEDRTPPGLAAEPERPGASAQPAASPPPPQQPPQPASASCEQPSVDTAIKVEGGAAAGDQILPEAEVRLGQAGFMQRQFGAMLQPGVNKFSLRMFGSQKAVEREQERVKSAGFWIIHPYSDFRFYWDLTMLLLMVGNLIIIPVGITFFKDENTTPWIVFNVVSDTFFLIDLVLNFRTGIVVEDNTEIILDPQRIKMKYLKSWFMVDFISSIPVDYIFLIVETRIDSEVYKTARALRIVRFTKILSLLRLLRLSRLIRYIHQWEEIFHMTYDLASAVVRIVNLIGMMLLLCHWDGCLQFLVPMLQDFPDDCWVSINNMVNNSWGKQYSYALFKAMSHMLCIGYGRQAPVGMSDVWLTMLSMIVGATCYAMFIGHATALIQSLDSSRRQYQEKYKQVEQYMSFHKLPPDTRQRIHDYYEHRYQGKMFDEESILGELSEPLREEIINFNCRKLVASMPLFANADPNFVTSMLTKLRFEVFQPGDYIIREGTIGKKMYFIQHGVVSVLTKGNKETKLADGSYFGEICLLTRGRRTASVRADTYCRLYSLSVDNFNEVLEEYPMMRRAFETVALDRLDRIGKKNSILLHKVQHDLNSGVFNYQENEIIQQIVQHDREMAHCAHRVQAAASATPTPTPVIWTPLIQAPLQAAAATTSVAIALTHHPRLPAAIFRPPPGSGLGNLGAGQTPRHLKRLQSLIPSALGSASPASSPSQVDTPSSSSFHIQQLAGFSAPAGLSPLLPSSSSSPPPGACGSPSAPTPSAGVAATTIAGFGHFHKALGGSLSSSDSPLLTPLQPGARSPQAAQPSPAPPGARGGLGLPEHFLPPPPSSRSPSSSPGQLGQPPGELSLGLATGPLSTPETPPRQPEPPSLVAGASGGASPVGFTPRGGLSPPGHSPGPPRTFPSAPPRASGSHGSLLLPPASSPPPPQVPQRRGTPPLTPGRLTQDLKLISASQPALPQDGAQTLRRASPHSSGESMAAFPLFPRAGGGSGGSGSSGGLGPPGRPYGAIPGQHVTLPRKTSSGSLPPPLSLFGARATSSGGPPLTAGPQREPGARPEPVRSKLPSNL
Protocol: as §1

T1 sequence (Q13936 whole entry): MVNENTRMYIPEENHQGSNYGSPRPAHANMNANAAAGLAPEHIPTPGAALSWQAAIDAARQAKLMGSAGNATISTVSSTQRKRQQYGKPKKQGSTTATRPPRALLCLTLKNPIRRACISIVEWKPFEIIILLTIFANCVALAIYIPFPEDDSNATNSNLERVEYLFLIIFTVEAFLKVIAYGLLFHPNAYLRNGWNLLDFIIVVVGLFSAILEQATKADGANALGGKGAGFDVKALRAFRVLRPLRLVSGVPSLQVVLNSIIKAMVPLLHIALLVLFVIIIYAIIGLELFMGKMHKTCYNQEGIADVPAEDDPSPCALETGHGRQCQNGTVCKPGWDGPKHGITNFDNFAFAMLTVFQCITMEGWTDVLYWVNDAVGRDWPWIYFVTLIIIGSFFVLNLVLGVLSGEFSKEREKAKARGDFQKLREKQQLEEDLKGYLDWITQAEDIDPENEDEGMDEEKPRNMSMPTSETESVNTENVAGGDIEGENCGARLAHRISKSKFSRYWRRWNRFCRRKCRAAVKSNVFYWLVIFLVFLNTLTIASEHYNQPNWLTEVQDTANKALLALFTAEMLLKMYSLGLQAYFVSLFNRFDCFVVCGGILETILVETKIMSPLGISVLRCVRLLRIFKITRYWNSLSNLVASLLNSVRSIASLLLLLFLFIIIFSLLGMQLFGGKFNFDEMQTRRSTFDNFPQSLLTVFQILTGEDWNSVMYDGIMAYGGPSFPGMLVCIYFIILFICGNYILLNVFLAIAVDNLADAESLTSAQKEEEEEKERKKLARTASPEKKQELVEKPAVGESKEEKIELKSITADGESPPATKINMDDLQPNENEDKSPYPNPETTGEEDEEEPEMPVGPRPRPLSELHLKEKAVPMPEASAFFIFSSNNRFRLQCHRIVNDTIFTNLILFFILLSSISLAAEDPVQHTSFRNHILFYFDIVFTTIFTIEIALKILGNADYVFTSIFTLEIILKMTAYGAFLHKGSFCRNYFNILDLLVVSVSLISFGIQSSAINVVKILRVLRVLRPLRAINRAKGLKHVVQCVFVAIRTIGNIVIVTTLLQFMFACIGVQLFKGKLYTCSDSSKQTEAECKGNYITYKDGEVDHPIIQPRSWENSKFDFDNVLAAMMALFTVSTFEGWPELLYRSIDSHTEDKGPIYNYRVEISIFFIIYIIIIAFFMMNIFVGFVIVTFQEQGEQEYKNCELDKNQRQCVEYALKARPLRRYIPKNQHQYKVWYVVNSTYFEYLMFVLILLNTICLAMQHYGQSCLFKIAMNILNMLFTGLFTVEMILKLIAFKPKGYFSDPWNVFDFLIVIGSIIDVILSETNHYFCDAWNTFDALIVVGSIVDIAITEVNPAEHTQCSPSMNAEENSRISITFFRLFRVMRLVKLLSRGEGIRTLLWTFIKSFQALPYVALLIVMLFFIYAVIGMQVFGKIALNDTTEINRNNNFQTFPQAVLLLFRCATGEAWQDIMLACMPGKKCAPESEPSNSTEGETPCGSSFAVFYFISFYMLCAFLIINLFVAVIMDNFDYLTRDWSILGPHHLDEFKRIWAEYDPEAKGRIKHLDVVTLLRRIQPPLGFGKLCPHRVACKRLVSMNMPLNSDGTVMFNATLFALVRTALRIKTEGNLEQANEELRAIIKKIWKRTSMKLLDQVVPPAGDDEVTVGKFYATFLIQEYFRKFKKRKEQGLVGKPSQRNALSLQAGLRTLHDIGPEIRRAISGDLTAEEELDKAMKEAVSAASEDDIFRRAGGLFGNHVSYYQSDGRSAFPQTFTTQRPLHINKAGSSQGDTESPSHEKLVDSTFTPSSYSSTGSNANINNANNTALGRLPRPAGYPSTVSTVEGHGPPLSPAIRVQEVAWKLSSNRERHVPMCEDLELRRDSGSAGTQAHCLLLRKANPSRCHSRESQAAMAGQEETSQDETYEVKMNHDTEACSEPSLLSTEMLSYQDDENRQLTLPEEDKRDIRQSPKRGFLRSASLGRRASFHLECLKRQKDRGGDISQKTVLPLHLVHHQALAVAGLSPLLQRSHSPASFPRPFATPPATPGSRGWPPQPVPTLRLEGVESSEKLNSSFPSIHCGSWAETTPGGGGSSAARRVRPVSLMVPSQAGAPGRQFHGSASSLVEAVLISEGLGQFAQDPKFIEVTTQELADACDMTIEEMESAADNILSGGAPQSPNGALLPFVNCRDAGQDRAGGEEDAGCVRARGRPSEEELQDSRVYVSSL
T1 sequence (Q08289 whole entry partner): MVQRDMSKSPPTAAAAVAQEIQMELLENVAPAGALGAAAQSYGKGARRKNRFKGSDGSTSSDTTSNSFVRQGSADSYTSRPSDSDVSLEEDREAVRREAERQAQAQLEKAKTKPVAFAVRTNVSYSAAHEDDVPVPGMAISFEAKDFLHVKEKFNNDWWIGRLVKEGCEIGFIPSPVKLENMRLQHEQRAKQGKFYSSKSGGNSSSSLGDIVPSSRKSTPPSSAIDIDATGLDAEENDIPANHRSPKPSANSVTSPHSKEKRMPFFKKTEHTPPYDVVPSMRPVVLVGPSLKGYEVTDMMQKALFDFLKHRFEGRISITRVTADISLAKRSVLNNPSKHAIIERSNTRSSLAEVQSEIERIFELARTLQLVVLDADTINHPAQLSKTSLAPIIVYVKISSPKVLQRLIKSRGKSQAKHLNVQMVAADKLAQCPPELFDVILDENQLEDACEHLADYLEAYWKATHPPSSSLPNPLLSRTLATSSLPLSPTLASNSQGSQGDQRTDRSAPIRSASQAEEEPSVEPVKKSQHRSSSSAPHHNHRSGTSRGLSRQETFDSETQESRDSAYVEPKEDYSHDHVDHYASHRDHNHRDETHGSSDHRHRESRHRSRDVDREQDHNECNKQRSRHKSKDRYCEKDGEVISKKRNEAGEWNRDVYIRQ
T1 sequence (P54289 25-956 partner limits assumed): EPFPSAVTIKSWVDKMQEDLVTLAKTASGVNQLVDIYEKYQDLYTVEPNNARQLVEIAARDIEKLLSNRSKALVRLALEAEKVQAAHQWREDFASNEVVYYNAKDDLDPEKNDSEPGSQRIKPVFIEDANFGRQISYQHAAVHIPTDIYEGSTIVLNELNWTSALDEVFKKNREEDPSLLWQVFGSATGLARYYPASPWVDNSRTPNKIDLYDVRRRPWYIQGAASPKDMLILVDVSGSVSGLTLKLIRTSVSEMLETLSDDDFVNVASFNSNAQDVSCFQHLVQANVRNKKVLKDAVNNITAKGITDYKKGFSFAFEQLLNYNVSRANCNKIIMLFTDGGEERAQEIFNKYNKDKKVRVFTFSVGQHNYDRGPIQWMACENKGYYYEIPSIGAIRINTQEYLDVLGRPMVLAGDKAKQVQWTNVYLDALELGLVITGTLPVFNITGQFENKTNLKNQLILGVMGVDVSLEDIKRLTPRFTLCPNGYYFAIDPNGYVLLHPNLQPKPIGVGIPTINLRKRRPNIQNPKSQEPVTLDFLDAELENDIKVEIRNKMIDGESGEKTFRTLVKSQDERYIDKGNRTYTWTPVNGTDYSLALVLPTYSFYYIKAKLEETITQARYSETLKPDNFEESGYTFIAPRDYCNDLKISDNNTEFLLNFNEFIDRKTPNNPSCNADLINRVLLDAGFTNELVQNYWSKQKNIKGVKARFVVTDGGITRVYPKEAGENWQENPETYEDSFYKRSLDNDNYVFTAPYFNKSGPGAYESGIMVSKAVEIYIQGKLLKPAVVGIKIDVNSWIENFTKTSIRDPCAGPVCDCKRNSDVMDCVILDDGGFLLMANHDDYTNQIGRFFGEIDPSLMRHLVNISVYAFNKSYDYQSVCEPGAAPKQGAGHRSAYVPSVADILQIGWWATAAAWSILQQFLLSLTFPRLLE
T1 sequence (P54289 957-1103 partner limits assumed): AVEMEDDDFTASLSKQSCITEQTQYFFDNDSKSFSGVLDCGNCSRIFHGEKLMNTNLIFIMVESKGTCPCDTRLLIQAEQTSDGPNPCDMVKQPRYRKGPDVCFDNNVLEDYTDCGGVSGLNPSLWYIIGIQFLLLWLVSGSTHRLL

## CC[C@H](C)[C@@H]1NC(=O)[C@H]([C@@H](C)O)NC(=O)[C@H](CO)NC(=O)[C@H](Cc2ccccc2)NC(=O)[C@H](CCCNC(=N)N)NC(=O)[C@H](CC(N)=O)NC(=O)[C@H](C)NC(=O)[C@H](CC(N)=O)NC(=O)CNC(=O)[C@H](CCCCN)NC(=O)[C@@H]2CSSC[C@@H]3NC(=O)[C@@H]4CCCN4C(=O)CNC(=O)[C@@H]4CCCN4C(=O)[C@H](CCCCN)NC(=O)[C@H](C(C)C)NC(=O)[C@@H]4CCCN4C(=O)[C@H](CC(C)C)NC(=O)[C@H](CC(N)=O)NC(=O)[C@@H](NC(=O)[C@H](Cc4ccccc4)NC(=O)[C@H](CO)NC(=O)[C@@H]4CCCN4C(=O)[C@@H](N)CCCNC(=N)N)CSSC[C@@H](C(=O)N[C@H](C(=O)NCC(=O)O)C(C)C)NC(=O)[C@H]([C@@H](C)O)NC(=O)[C@H](CCCNC(=N)N)NC(=O)[C@H](CCCNC(=N)N)NC(=O)[C@H](CSSC[C@H](NC(=O)[C@H](CCCCN)NC(=O)[C@H](CC(N)=O)NC(=O)[C@H]([C@@H](C)O)NC(=O)[C@H](CCCCN)NC(=O)[C@H](CCC(N)=O)NC(=O)[C@H](CO)NC(=O)[C@H](Cc4ccc(O)cc4)NC(=O)[C@H](Cc4ccc(O)cc4)NC(=O)[C@H](Cc4ccccc4)NC(=O)[C@H](C)NC(=O)[C@H](CO)NC(=O)[C@H](Cc4ccccc4)NC(=O)[C@H](Cc4ccccc4)NC(=O)CNC(=O)[C@H](CC(N)=O)NC3=O)C(=O)N[C@@H](Cc3c[nH]cn3)C(=O)N[C@@H](CO)C(=O)N[C@@H](Cc3ccccc3)C(=O)N[C@@H]([C@@H](C)O)C(=O)N[C@@H](Cc3ccc(O)cc3)C(=O)NCC(=O)NCC(=O)N2)NC(=O)[C@H](CCCCN)NC(=O)[C@H](CCC(=O)O)NC1=O [U-Da2a]
157 GPCRs
  agonist and antagonist activity on 157 GPCRs: detected only on V2R
Cav1.2
  inhibition of Cav1.2: did not appear to exhibit significant inhibition
HCN4
  inhibition of HCN4: did not appear to exhibit significant inhibition
